Results taken from the kinase profiling compilation of Christmann-Franck et al. (2016).

Assays:
Test in all cases: KINOMEscan competition binding
Conditions in all cases: compound 2.0 µM
[1] = target: DYRK1B (human) (UniProt Q9Y463)
[2] = target: PIK3CG (human) (UniProt P48736)
[3] = target: PIK3CA (human) (UniProt P42336)
[4] = target: GAK (human) (UniProt O14976)
[5] = target: HIPK3 (human) (UniProt Q9H422)
[6] = target: MAP3K4 (human) (UniProt Q9Y6R4)
[7] = target: WEE1 (human) (UniProt P30291)
[8] = target: MAPK14 (human) (UniProt Q16539)
[9] = target: PIP5K1C (human) (UniProt O60331)
[10] = target: MAST1 (human) (UniProt Q9Y2H9)
[11] = test system: RET (human), P07949 [V804L]
[12] = target: ULK2 (human) (UniProt Q8IYT8)
[13] = target: TYRO3 (human) (UniProt Q06418)
[14] = test system: EIF2AK4 KD2 (human), Q9P2K8 [S808G]
[15] = target: JAK3 JH1 catalytic (human) (UniProt P52333)
[16] = target: CDK3 (human) (UniProt Q00526)
[17] = target: MAP4K5 (human) (UniProt Q9Y4K4)
[18] = target: CDC2L2 (human) (UniProt Q9UQ88)
[19] = target: SRC (human) (UniProt P12931)
[20] = target: MYO3B (human) (UniProt Q8WXR4)
[21] = target: CDK9 (human) (UniProt P50750)
[22] = target: PDPK1 (human) (UniProt O15530)
[23] = target: AURKB (human) (UniProt Q96GD4)
[24] = target: NEK9 (human) (UniProt Q8TD19)
[25] = target: STK17A (human) (UniProt Q9UEE5)
[26] = target: TGFBR2 (human) (UniProt P37173)
[27] = target: BMX (human) (UniProt P51813)
[28] = target: STK32C (human) (UniProt Q86UX6)
[29] = test system: KIT (human), P10721 [L576P]
[30] = target: CDK4 CCND3 (human) (UniProt P11802+P30281)
[31] = target: OXSR1 (human) (UniProt O95747)
[32] = target: IKBKE (human) (UniProt Q14164)
[33] = target: CAMK2G (human) (UniProt Q13555)
[34] = target: EPHB3 (human) (UniProt P54753)
[35] = target: ULK3 (human) (UniProt Q6PHR2)
[36] = target: CSNK1G1 (human) (UniProt Q9HCP0)
[37] = target: PKN1 (human) (UniProt Q16512)
[38] = target: AURKC (human) (UniProt Q9UQB9)
[39] = target: MARK3 (human) (UniProt P27448)
[40] = test system: FLT3 (human), P36888 [R834Q]
[41] = test system: PIK3CA (human), P42336 [E542K]
[42] = test system: FLT3 (human), P36888 [D835Y]
[43] = target: NEK11 (human) (UniProt Q8NG66)

Chain of MARK3 (human) (P27448 whole entry, looked up): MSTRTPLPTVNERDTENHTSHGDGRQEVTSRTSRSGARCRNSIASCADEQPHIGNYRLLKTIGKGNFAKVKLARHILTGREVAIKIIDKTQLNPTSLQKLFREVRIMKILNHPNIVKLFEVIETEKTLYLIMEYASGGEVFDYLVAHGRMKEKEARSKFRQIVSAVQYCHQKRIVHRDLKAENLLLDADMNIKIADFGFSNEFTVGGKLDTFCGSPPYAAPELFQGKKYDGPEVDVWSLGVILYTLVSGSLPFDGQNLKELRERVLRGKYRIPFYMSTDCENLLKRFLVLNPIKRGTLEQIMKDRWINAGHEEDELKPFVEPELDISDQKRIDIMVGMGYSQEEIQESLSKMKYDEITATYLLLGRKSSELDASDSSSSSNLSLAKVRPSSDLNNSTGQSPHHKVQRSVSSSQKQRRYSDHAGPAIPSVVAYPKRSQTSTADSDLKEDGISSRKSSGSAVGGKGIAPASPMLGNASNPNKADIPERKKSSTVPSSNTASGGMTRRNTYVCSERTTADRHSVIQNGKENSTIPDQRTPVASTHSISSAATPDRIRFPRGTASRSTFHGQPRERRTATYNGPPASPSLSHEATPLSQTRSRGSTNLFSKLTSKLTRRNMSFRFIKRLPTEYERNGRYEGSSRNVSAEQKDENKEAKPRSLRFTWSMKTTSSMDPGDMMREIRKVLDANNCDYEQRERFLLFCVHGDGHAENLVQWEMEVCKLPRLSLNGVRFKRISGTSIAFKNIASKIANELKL
Chain of TYRO3 (human) (Q06418 whole entry, looked up): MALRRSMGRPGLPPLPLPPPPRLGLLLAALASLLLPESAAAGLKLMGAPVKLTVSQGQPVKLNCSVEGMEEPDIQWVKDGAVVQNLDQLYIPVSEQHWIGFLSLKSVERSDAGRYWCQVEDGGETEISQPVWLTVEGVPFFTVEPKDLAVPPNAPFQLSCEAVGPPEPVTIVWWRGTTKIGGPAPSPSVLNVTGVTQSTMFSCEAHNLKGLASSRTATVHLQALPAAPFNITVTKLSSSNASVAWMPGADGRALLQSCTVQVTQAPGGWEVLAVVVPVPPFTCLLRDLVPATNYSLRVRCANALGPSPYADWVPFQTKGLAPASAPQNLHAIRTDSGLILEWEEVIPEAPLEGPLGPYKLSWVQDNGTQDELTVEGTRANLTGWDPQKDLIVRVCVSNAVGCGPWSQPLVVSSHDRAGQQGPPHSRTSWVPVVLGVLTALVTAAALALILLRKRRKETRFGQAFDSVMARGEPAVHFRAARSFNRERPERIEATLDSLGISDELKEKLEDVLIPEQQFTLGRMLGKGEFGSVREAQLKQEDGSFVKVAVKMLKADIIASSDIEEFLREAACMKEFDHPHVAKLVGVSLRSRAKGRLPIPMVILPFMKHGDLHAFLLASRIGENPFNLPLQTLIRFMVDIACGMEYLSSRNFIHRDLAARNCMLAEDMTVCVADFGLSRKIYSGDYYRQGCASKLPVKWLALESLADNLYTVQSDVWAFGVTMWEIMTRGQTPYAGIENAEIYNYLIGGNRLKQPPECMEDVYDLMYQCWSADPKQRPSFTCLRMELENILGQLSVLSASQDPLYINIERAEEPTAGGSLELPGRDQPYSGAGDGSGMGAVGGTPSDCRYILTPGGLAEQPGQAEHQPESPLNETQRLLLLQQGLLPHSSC
Chain of JAK3 JH1 catalytic (human) (P52333 whole entry, looked up): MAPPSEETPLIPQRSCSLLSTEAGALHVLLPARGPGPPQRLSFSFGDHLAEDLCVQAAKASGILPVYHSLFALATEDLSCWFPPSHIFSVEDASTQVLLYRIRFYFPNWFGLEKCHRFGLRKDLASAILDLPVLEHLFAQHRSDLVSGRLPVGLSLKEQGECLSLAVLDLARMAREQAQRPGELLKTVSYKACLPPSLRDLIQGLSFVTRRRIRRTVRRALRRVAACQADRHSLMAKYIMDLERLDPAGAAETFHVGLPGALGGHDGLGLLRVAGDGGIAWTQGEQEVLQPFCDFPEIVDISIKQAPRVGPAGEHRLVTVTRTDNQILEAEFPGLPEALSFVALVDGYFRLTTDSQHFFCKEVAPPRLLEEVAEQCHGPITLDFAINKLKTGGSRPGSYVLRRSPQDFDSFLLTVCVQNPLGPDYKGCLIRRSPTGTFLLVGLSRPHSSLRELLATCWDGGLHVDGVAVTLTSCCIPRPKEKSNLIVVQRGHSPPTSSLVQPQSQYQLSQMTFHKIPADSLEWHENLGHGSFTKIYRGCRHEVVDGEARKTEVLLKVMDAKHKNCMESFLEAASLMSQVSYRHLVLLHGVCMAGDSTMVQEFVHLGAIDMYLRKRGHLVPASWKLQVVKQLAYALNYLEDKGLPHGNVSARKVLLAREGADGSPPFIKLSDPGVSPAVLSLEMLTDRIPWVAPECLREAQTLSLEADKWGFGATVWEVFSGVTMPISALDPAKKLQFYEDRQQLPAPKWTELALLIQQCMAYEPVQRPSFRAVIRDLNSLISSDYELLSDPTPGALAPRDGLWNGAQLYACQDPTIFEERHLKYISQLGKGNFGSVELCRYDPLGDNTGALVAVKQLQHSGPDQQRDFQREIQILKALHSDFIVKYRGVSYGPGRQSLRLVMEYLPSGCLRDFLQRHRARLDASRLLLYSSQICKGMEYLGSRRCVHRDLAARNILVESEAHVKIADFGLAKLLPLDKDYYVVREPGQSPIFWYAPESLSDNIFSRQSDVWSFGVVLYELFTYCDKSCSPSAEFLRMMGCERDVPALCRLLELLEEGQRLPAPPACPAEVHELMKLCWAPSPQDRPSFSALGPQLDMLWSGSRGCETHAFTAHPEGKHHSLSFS
Chain of PIP5K1C (human) (O60331 whole entry, looked up): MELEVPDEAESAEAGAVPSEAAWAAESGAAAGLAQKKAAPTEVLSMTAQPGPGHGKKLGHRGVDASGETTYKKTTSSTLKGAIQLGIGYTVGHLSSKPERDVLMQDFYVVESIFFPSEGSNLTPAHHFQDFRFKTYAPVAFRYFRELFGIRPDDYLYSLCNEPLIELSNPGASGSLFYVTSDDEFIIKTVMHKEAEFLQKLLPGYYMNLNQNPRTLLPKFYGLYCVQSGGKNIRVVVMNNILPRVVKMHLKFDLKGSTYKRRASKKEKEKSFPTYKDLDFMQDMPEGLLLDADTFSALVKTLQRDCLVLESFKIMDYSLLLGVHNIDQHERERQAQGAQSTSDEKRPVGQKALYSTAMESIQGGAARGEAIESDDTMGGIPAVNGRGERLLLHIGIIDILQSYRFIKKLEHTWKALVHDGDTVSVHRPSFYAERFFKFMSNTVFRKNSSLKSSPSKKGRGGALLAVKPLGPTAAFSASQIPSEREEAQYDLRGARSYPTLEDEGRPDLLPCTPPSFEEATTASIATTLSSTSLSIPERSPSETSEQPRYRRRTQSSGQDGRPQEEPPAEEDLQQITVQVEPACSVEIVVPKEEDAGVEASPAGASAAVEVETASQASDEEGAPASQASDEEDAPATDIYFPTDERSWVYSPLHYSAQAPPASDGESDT
Chain of MYO3B (human) (Q8WXR4 whole entry, looked up): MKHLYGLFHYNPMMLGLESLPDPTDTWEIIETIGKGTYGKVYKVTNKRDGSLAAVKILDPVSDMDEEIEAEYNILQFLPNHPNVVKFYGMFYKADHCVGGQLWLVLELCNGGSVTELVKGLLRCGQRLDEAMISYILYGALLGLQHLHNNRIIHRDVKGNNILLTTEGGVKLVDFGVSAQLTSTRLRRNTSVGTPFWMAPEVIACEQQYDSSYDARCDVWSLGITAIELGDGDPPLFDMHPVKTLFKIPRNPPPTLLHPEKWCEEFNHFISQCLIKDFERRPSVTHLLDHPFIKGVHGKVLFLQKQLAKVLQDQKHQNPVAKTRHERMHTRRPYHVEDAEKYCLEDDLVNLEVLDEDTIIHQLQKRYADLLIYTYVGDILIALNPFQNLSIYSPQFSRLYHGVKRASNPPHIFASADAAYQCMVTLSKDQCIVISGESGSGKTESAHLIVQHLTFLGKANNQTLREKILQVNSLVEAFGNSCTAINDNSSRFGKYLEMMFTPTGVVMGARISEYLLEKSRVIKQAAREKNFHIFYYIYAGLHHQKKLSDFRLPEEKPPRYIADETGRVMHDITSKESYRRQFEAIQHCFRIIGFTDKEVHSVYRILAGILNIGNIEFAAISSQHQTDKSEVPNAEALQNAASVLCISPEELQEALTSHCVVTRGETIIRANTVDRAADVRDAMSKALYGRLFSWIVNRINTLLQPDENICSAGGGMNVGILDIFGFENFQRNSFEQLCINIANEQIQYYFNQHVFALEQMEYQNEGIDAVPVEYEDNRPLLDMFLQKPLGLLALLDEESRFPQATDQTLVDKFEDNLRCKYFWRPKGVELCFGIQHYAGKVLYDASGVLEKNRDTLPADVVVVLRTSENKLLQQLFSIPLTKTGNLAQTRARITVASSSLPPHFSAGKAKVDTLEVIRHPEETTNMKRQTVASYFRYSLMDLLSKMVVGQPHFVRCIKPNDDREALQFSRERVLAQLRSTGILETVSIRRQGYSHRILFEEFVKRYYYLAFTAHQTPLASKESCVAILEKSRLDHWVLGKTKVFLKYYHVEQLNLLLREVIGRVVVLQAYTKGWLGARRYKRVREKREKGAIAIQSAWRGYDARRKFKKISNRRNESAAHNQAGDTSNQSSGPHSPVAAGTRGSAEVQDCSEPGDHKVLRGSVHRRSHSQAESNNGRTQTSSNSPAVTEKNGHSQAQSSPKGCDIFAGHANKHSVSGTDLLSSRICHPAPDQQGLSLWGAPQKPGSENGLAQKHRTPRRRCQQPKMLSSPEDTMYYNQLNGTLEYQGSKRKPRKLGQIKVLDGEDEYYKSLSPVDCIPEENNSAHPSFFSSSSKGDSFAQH
Chain of CDK3 (human) (Q00526 whole entry, looked up): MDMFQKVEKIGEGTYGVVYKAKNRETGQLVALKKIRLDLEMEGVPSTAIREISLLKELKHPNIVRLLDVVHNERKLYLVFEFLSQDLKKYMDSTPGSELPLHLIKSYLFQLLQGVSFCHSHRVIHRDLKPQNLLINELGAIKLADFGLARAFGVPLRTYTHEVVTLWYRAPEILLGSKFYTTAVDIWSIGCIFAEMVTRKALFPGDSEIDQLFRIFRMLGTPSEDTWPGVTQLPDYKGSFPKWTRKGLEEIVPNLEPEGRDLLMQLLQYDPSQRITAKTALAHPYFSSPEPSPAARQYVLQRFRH

N#Cc1ccc2ncnc(NCCc3ccc4ccccc4c3)c2c1
kinase still bound, per cent of control [1]: 96%
kinase still bound, per cent of control [2]: 68%
kinase still bound, per cent of control [3]: 78%
kinase still bound, per cent of control [4]: 100%
kinase still bound, per cent of control [5]: 78%
kinase still bound, per cent of control [6]: 86%
kinase still bound, per cent of control [7]: 88%
kinase still bound, per cent of control [8]: 100%
kinase still bound, per cent of control [9]: 100%
kinase still bound, per cent of control [10]: 84%
kinase still bound, per cent of control [11]: 92%
kinase still bound, per cent of control [12]: 100%
kinase still bound, per cent of control [13]: 87%
kinase still bound, per cent of control [14]: 80%
kinase still bound, per cent of control [15]: 100%
kinase still bound, per cent of control [16]: 100%
kinase still bound, per cent of control [17]: 95%
kinase still bound, per cent of control [18]: 100%
kinase still bound, per cent of control [19]: 94%
kinase still bound, per cent of control [20]: 96%
kinase still bound, per cent of control [21]: 100%
kinase still bound, per cent of control [22]: 100%
kinase still bound, per cent of control [23]: 79%
kinase still bound, per cent of control [24]: 100%
kinase still bound, per cent of control [25]: 100%
kinase still bound, per cent of control [26]: 92%
kinase still bound, per cent of control [27]: 97%
kinase still bound, per cent of control [28]: 100%
kinase still bound, per cent of control [29]: 86%
kinase still bound, per cent of control [30]: 100%
kinase still bound, per cent of control [31]: 100%
kinase still bound, per cent of control [32]: 100%
kinase still bound, per cent of control [33]: 100%
kinase still bound, per cent of control [34]: 100%
kinase still bound, per cent of control [35]: 100%
kinase still bound, per cent of control [36]: 83%
kinase still bound, per cent of control [37]: 100%
kinase still bound, per cent of control [38]: 84%
kinase still bound, per cent of control [39]: 95%
kinase still bound, per cent of control [40]: 100%
kinase still bound, per cent of control [41]: 84%
kinase still bound, per cent of control [42]: 94%
kinase still bound, per cent of control [43]: 99%
